From US12290521B2, “Methods and materials for identifying and treating BET inhibitor-resistant cancers” (Mayo Foundation for Medical Education and Research, priority 2018, dated 2025)
Residues, ends and D or L forms follow the SMILES beside them. *: point of attachment. Cbz = O=C(OCc1ccccc1)*

Assays:
[1] = test system: C4-2 cells; assay: Cell proliferation assay (MTS) and trypan blue assay; format: cell-based, human; details: SPOP-F133V C4-2 cells; GDC-0068 0.2 μM with JQ1 0.25 μM, 5 days
Method: CellTiter 96® AQueous One Solution Cell Proliferation Assay (MTS) (Promega) was used to measure cell growth according to the manufacturer's instructions. Briefly, cells were plated in 96-well plates at a density of 2,000 cells per well. At the indicated times, 20 μL of Cell Titer 96R Aqueous One Solution Reagent was added to medium. After incubating for 1 hour at 37° C. in the cell incubator, cell growth was measured in a microplate reader at 490 nm.
Trypan blue assay was performed to measure cell growth according to the manufacturer's instructions. Briefly, cells were plated in 6-well plates at a density of about 5×10^4 to about 1×10^5 cells per well. At the indicated time points, cells were trypsinized and suspended in 1 mL 1×PBS. 100 μL cells and 100 μL trypan blue solution (Sigma-Aldrich) were mixed, and the number of viable cells was measured using the Bio-Rad automated cell counter.
Cell proliferation was measured by using the MTS assay (Promega). Prostate cancer cells (2,000 per well) were seeded in 96-well plates with 100 μL of culture medium. Each well was added with 20 μL of CellTiter 96R AQueous One Solution Reagent (Promega) and absorbance was measured in a microplate reader at 490 nm.

[2] = test system: C4-2 cells; assay: Western blot and RT-qPCR of protein and mRNA expression in C4-2 cells; format: cell-based, human; details: 24 hours
Method: (§1) Cell lysates or immunoprecipitates were subjected to SDS-PAGE, and proteins were transferred to nitrocellulose membranes (GE Healthcare Sciences). The membranes were blocked in Tris-buffered saline (TBS, pH 7.4) containing 5% non-fat milk and 0.1% Tween-20, washed twice in TBS containing 0.1% Tween-20, and incubated with primary antibody overnight at 4° C., followed by secondary antibody for 1 hour at room temperature. The proteins of interest were visualized using ECL chemiluminescence system (Santa Cruz Biotechnology). Densitometry analysis of protein bands was analyzed on the Gel-Pro Analyzer software.
(§2) Total RNA was isolated from transiently transfected cells using the Trizol reagent (Thermo Fisher Scientific), and cDNA was reverse-transcribed using the Superscript RT kit (TOYOBO, Japan) according to the manufacturer's instructions. PCR amplification was performed using the SYBR Green PCR master mix Kit (TOYOBO, Japan). All quantization was normalized to the level of endogenous control GAPDH. The primer sequences for the SYBR green qPCR used were as follows: BRD2-F: 5′-[…]-3′ (SEQ ID NO:10); BRD2-R: 5′-[…]-3′ (SEQ ID NO:11); BRD3-F: 5′-[…]-3′ (SEQ ID NO:12); BRD3-R: 5′-[…]-[…]-3′ (SEQ ID NO:13); BRD4-F: 5′-[…]-GAG-3′ (SEQ ID NO:14); BRD4-F: 5′-[…]-3′ (SEQ ID NO: 15); RAC1-F: 5′-[…]-3′ (SEQ ID NO:16); RAC1-R: 5′-[…]-3′ (SEQ ID NO:17); FDFT1-F: 5′-ACTAT-[…]-3′ (SEQ ID NO:18); FDFT1-R: 5′-[…]-[…]-3′ (SEQ ID NO:19); DHCR24-F: 5′-[…]-GAGC-3′ (SEQ ID NO:20); DHCR24-R: 5′-[…]-3′(SEQ ID NO:21); DHCR7-F: 5′-[…]-3′ (SEQ ID NO: 22); DHCR7-R: 5′-[…]-3′ (SEQ ID NO:23); MVD-F: 5′-[…]-3′ (SEQ ID NO:24); MVD-R: 5′-CACAC-[…]-3′ (SEQ ID NO:25); PSA-F: 5′-[…]-[…]-3′ (SEQ ID NO:26); PSA-R: 5′-[…]-3′ (SEQ ID NO:27); TMPRSS2-F: 5′-[…]-3′ (SEQ ID NO: 28); TMPRSS2-R: 5′-[…]-3′ (SEQ ID NO:29); MYC-F: 5′-[…]-3′ (SEQ ID NO:30); MYC-R: 5′-CTTGT-[…]-3′ (SEQ ID NO:31); AR-F: 5′-[…]-TCACC-3′ (SEQ ID NO:32); AR-R: 5′-[…]-3′ (SEQ ID NO: 33); GAPDH-F: 5′-[…]-3′ (SEQ ID NO:34); and GAPDH-R: 5′-[…]-3′ (SEQ ID NO:35).
(§3) Cells were harvested and lysed by IP buffer (50 mM Tris-HCl, pH 7.4, 150 mM NaCl, 1% Triton X-100, 1% sodium deoxycholate and 1% protease inhibitor cocktails) on ice for more than 15 minutes. Cell lysate was centrifuged for 15 minutes at 13,000 rpm at 4° C., and the supernatant was quantified by BCA protein quantification assay. Equal amounts of protein sample were added into 4× sample buffer and boiled for 5 minutes. The sample was subjected to SDS-PAGE analysis and transferred to nitrocellulose membrane. The membrane was blocked by 5% milk for 1 hour at room temperature and incubated with primary antibody at 4° C. overnight. The next day, the membrane was washed three times with 1×TBST and incubated with horseradish peroxidase-conjugated secondary antibodies for 1 hour at room temperature. The protein bands were visualized by SuperSignal West Pico Stable Peroxide Solution (Thermo Fisher Scientific).
Total RNA was isolated using TRIzol reagent (Thermo Fisher Scientific). The NanoDrop 2000 spectrophotometer (Thermo Fisher Scientific) was used to assess RNA yield and quality. RNA was reversely transcribed using Superscript II reverse transcriptase (Thermo Fisher Scientific) following manufacturer's instructions. Quantitative real-time PCR was performed by mixing cDNA, gene-specific primers and IQ SYRB Green Supermix and detected by iCycler QTX detection system (Bio-Rad). The 2-ΔCt method was used to quantitate fold changes by normalizing to GAPDH.

[3] = test system: solid tumors; details: patients with solid tumors; cited from earlier work
[4] = test system: C4-2 xenograft tumors; assay: Prostate cancer xenografts in NSG mice; format: in vivo; details: SPOP-F133V C4-2 xenografts; GDC-0068 100 mg/kg with JQ1 50 mg/kg, 5 days a week, day 21
Method: 6-week-old NOD-SCID IL-2-receptor gamma null (NSG) mice were generated and randomly divided into different experimental groups as indicated. All mice were housed in standard conditions with a 12-hour light/dark cycle and access to food and water ad libitum. For BRD2/3/4 knockdown studies, C4-2 cells (5×10^6), infected with lentivirus expressing empty vector (EV) or HA-SPOP-F133V mutant in combination with control shRNA or BRD2/3/4-specific shRNA, were mixed with Matrigel (in 100 μL 1×PBS plus 100 μL Matrigel (BD Biosciences)) and injected s.c. into the right flank of mice. After xenografts reached the size of about 100 mm^3, vehicle (10% beta cyclodextrin) or JQ1 (Sigma-Aldrich) at 50 mg/kg body weight was administered by i.p. injection 5 days a week. For studies with tumors treated with JQ1 and AKT inhibitor GDC-0068, C4-2 cells (5×10^6) infected with lentivirus expressing empty vector (EV) or HA-SPOP-F133V mutant were mixed with Matrigel (in 100 μL 1×PBS plus 100 μL Matrigel (BD Biosciences)) and injected s.c. into the right flank of mice. […] Growth in tumor volume was measured in a blinded fashion using digital caliper, and tumor volumes were estimated using the formula (L×W2)/2, where L is length of tumor and W is width. The volumes of tumors were compared, and P values were determined by a two-tailed Student's t test. […]

[5] = test system: BRD2/3/4; assay: Western blot and RT-qPCR of BRD2/3/4 in LNCaP cells; format: cell-based; details: 8 hours, MLN4924 200 nM, Bortezomib 200 nM, MG132 20 μM
Method: as §1, §2

[6] = test system: BRD4; assay: Western blot of BRD4 protein, ubiquitination and half-life in DU145 cells; format: cell-based, human
Method: Co-Immunoprecipitation (Co-IP) Cells were harvested and lysed by IP buffer (50 mM Tris-HCl, pH 7.4, 150 mM NaCl, 1% Triton X-100, 1% sodium deoxycholate and 1% protease inhibitor cocktails) on ice for more than 15 minutes. Cell lysate was centrifuged for 15 minutes at 13,000 rpm at 4° C., and the supernatant was incubated with primary antibodies and protein A/G agarose beads (Thermo Fisher Scientific) with rotating at 4° C. overnight. The next day, the pellet was washed at least six times with 1×IP buffer on ice, and then subjected to western blotting analysis. Western Blotting
as §3

[7] = test system: SPOP and BRD2/3/4; assay: Western blot, co-IP and in vivo ubiquitination assay in 293T cells; format: cell-based, human; details: MG132 20 μM, 8 hours
Method: To immunoprecipitate the ectopically expressed FLAG-tagged proteins, transfected cells were lysed 24 hours post-transfection in BC100 buffer. The whole-cell lysates were immunoprecipitated with the monoclonal anti-FLAG antibody-conjugated M2 agarose beads (Sigma-Aldrich) at 4° C. overnight. After three washes with lysis buffer, followed by two washes with BC100 buffer, the bound proteins were eluted using FLAG-Peptide (Sigma-Aldrich) prepared in BC100 for 3 hours at 4° C. The eluted protein sample was resolved by SDS-PAGE. To immunoprecipitate the endogenous proteins, cells were lysed with 1× cell lysis buffer (Cell Signaling Technology), and the lysate was centrifuged. The supernatant was precleared with protein A/G beads (Sigma-Aldrich) and incubated with the indicated antibody and protein A/G beads at 4° C. overnight. Beads were washed five times with lysis buffer and resuspended in sample buffer and analyzed by SDS-PAGE.
as §1
For the in vivo ubiquitination assay, C4-2 cells were transfected with plasmids for HA-Ub, FLAG-BRD4, and other indicated proteins. C ells were treated with 20 μM MG132 for 8 hours before being harvested and lysed with lysis buffer (50 mM Tris-HCl, pH 7.5, 150 mM NaCl, 1% NP40, 0.5% sodium deoxycholate, 1× protease inhibitor cocktail (PIC)). The lysate was subjected to co-immunoprecipitation using anti-FLAG-conjugated agarose beads as described in the Co-IP assay.

[8] = test system: BRD4; assay: Western blot of BRD4 protein in PC-3 cells; format: cell-based, human; details: MG132, 8 h
Method: as §3

[9] = DU145 cells, PD0332991 2 μM, 24 hours
[10] = DU145 cells, PD0332991 with JQ1, 24 hours

CC(C)NC[C@@H](C(=O)N1CCN(c2ncnc3c2[C@H](C)C[C@H]3O)CC1)c1ccc(Cl)cc1 [GDC-0068]
SPOP mutation-conferred resistance to BET inhibitor, cells in culture [1]: completely overcame
SPOP mutation-induced activation of AKT downstream pathways ([2]; SPOP-F133V C4-2 cells, GDC-0068 1 μM, Western blot): abolished
antitumor efficacy [3]: effective antitumor efficacy
SPOP mutation-conferred resistance to BET inhibitor, tumors in mice [4]: completely overcame

CC(C)C[C@H](NC(=O)[C@H](Cc1ccccc1)NC(=O)c1cnccn1)B(O)O [Bortezomib]
BRD2/3/4 protein level [5]: increased

NS(=O)(=O)OC[C@@H]1C[C@@H](n2ccc3c(N[C@H]4CCc5ccccc54)ncnc32)C[C@@H]1O [MLN4924]
BRD2/3/4 protein level [5]: accumulation

CC(=O)c1c(C)c2cnc(Nc3ccc(N4CCNCC4)cn3)nc2n(C2CCCC2)c1=O [PD0332991, 6-acetyl-8-cyclopentyl-5-methyl-2-[(5-piperazin-1-ylpyridin-2-yl)amino]pyrido[2,3-d]pyrimidin-7-one]
BRD4 protein expression in DUB3 knockdown cells ([6]; DU145 cells, DUB3 shRNA, PD0332991 2 μM, 24 hours): little or no further reduction
BRD4 polyubiquitination [6, 9]: increased
DUB3-induced upregulation of BRD4 protein [6, 9]: completely blocked
DUB3-mediated deubiquitination of BRD4 [6, 9]: reversed
BRD4 protein ([6]; DU145 cells, PD0332991 2 μM, time-dependent): decreased
JQ1-induced inhibition of BRD4 polyubiquitination [6, 10]: almost completely reversed
JQ1-induced upregulation of BRD4 protein [6, 10]: almost completely abolished

CC(/C=C/C(=O)NO)=C\[C@@H](C)C(=O)c1ccc(N(C)C)cc1 [trichostatin A]
DUB3 protein and mRNA expression ([2]; C4-2 cells, TSA 1 μM): increased

CC(C)C[C@@H](C=O)NC(=O)[C@H](CC(C)C)NC(=O)[C@H](CC(C)C)NC(=O)OCc1ccccc1 [MG132] (Cbz-Leu-Leu-Leu-aldehyde)
PD0332991-induced decrease of BRD4 protein ([6]; DU145 cells, 24 hours, co-treatment with MG132): completely impeded
decrease of BRD4 protein levels by DUB3 knockdown ([6]; SPOP F133V-expressing DU145 cells, MG132, 8 hours): blocked
decrease of BRD2/3/4 proteins by wild-type SPOP expression [7]: completely reversed
BRD2/3/4 protein level [5]: increased
downregulation of BRD4 proteins caused by DUB3 knockdown [8]: reversed
